Assay: Storage stability of amrubicin hydrochloride compositions: rates of by-product generation of degradation products
Format: physicochemical
Procedure: Various compositions of amrubicin hydrochloride composed of about 91 to about 98% by weight of amrubicin hydrochloride and about 2 to about 9% by weight of water were prepared by exposing dried amrubicin hydrochloride to air whose relative humidity was adjusted (0 to 95%).
The thus-prepared amrubicin hydrochloride compositions having water contents of about 2 to about 9% by weight were stored at 30° C. and investigated rates of by-product generation of the degradation products, i.e., the desaccharification and deamination products.
The relative humidity was adjusted by reference to “Kobunshi Jikken-gaku Koza (Polymer Experiment Course) 5, Kobunshi no Bussei (Physical Properties of Polymers), 100-107 pages (Kyoritsu Shuppan Kabushiki Kaisha)”.

[1] = according to the decrease in water content
[2] = according to the increase in water content

CC(=O)[C@]1(N)Cc2c(O)c3c(c(O)c2[C@@H](O[C@H]2C[C@H](O)[C@H](O)CO2)C1)C(=O)c1ccccc1C3=O.Cl [amrubicin hydrochloride, (7S,9S)-9-Acetyl-9-amino-7-[(2-deoxy-β-D-erythro-pentapyranosyl)oxy]-7,8,9,10-tetrahydro-6,11-dihydroxy-5,12-nephthacenedione hydrochloride]
by-product generation rate of the deamination product [1]: decreased
by-product generation rate of the desaccharification product [1]: increased
by-product generation rate of the deamination product [2]: increased
by-product generation rate of the desaccharification product [2]: decreased
by-product generation of both desaccharification and deamination products (stored at 30° C. under an atmosphere at 5 to 90% relative humidity (FIG. 1)): can be suppressed
by-product generation of both desaccharification and deamination products (stored at 30° C., water content in composition controlled at 3 to 8% by weight (FIG. 2)): can be suppressed

Reference: patent US8030283B2, “Stabilization of amrubicin hydrochloride” (Dainippon Sumitomo Pharma Co., Ltd., priority 2001, dated 2011)
